Laboratory results from patent US7288564B2, “Indole derivatives” (Glaxo Group Limited, priority 2000, dated 2007).

Biological target: T1, human EP4 receptor (Homo sapiens, UniProt P35408)
Experiment: Human EP4 Scintillation Proximity Assay (radioligand binding)
Set-up: expressed in transfected cells; host or cells: CHO cells infected with Semliki Forest Virus (SFV-1) particles; membranes prepared
Conditions: membranes of CHO cells expressing human EP4; 1.25 nM [3H]-prostaglandin E2; Cheng-Prusoff; read-out: pKi at EP4 receptors (converted)
Procedure: Quantification of radioligand binding by scintillation proximity assay (SPA) is a long-established principle. Briefly, the affinity of compounds for a receptor is assessed by the specific competition between known quantities of radiolabelled ligand compound for that receptor. Increasing concentrations of compound reduce the amount of radiolabel that binds to the receptor. This gives rise to a diminishing scintillation signal from SPA beads coated with membranes that bear the receptor. The signal may be detected with a suitable scintillation counter and the data generated may be analysed with suitable curve-fitting software.
The human EP4 SPA assay (hereafter referred to as ‘the assay’) utilises membranes prepared from Chinese Hamster Ovary (CHO cells) infected with Semliki Forest Virus (SFV). Genetically engineered SFV-1 viral particles containing the genetic sequence of the human EP4 receptor were used to infect CHO cells resulting in expression of th receptor protein in cellular membranes.
Cells washed free of media are homogenised in a pH-buffered medium containing peptidase inhibitors. A suitable buffer is of the following composition: 50 mM HEPES, 1 mM EDTA, 25 μg/ml bacitracin, 100 μM leupeptin, 1 mM PMSF, 2 μM Pepstatin A, pH adjusted to 7.4 with KOH. Following removal of cell debris by a low-speed centrifugation, a pellet of membranes is prepared by a high-speed (48000 g) centrifugation of the resulting supernatant. Membrane suspensions such as that described may be stored at −80° C. until used.
For assay, membranes expressing human EP4 receptors are diluted in a pH-buffered medium and mixed with SPA beads coated with a suitable substance to facilitate the adhesion of membranes to the beads. The concentrations of membrane protein and SPA beads chosen should result in SPA binding signal of at least 300 corrected counts per minute (CCPM) when tritiated radioligand at a concentration close to its Kd (affinity value) is combined with the mixture. Non-specific binding (nsb) may be determined by competition between the radiolabelled ligand and a saturating concentration of unlabelled ligand. In order to quantify the affinity of EP4 receptor ligands, compounds are diluted in a stepwise manner across the wells of a 96-well plate. Radioligand, compound, and unlabelled ligand are then added to a 96-well plate suitable for the measurement of SPA binding signals prior to the addition of bead/membrane mixture to initiate the binding reaction. Equilibrium may be achieved by incubation at room temperature for 120 minutes prior to scintillation counting. The data so generated may be analysed by means of a computerised curve-fitting routine in order to quantify the concentration of compound that displaces 50% of the specific radioligand binding (IC50). The affinity (pKi) of the compound may be calculated from the IC50 by application of the Cheng-Prusoff correction. Suitable reagents and protocols are: reaction buffer containing 50 mM HEPES, 10 mM MgCl2, pH adjusted to 7.4 with KOH; SPA beads coated with wheatgerm agglutinin; 1.25 nM [^3H]-prostaglandin E2 as radioligand; 10 μM prostaglandin E2 as unlabelled ligand; a three-fold dilution series of compound starting at 10 μM and ending at 0.3 nM is adequate.

T1 sequence (P35408 whole entry): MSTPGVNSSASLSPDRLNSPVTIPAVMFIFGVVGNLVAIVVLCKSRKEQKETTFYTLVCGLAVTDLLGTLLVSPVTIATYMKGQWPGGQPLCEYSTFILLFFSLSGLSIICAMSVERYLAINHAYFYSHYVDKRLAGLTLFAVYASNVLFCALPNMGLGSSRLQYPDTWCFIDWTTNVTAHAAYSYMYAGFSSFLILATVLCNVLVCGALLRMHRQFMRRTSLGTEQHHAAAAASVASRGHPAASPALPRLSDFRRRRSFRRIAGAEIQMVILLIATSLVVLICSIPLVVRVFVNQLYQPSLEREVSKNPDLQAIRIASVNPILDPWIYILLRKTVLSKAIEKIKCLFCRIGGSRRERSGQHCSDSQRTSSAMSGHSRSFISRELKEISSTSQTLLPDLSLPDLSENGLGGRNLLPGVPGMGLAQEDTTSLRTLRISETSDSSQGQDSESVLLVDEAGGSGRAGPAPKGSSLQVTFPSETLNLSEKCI

Row | Compound | Ki [nM]
1 | COc1cc2[nH]c(C)c(CC(=O)Nc3cc(C)ccc3C(=O)O)c2cc1OC [Example 20, 2-{[(5,6-dimethoxy-2-methyl-1H-indol-3-yl)acetyl]amino}-4-methylbenzoic acid] | ≤ 100
2 | CCc1ccc(C(=O)O)c(NC(=O)Cc2c(C)[nH]c3ccc(OC)cc23)c1 [Example 26, 4-ethyl-2-{[(5-methoxy-2-methyl-1H-indol-3-yl)acetyl]amino}benzoic acid] | ≤ 100
3 | COc1ccc2[nH]cc(CC(=O)Nc3cc(C)ccc3C(=O)O)c2c1 [Example 7, 2-{[(5-methoxy-1H-indol-3-yl)acetyl]amino}-4-methylbenzoic acid] | ≤ 100
4 | COc1ccc2[nH]c(C)c(CC(=O)Nc3cc(F)ccc3C(=O)O)c2c1 [Example 10, 4-fluoro-2-{[(5-methoxy-2-methyl-1H-indol-3-yl)acetyl]amino}benzoic acid] | ≤ 100
5 | COc1ccc2[nH]c(C)c(CC(=O)Nc3cc([N+](=O)[O-])ccc3C(=O)O)c2c1 [Example 12, 2-{[(5-methoxy-2-methyl-1H-indol-3-yl)acetyl]amino}-4-nitrobenzoic acid] | ≤ 100
6 | Cc1ccc(C(=O)O)c(NC(=O)Cc2c(C)[nH]c3ccccc23)c1 [Example 3, 4-methyl-2-{[(2-methyl-1H-indol-3-yl)acetyl]amino}benzoic acid] | ≤ 100
7 | COc1ccc2[nH]c(C)c(CC(=O)Nc3cc(C(F)(F)F)ccc3C(=O)O)c2c1 [Example 17, 2-{[(5-methoxy-2-methyl-1H-indol-3-yl)acetyl]amino}-4-(trifluoromethyl)benzoic acid] | ≤ 100
8 | COc1ccc2[nH]c(C)c(CC(=O)Nc3ccccc3C(=O)O)c2c1 [Example 13, 2-{[(5-methoxy-2-methyl-1H-indol-3-yl)acetyl]amino}benzoic acid] | ≤ 100
9 | COc1ccc2[nH]c(C)c(CC(=O)Nc3cc(Cl)ccc3C(=O)O)c2c1 [Example 11, 4-chloro-2-{[(5-methoxy-2-methyl-1H-indol-3-yl)acetyl]amino}benzoic acid] | ≤ 100
10 | Cc1ccc(C(=O)O)c(NC(=O)Cc2c[nH]c3ccccc23)c1 [Example 2, 2-[(1H-indol-3-ylacetyl)amino]-4-methylbenzoic acid] | ≤ 100

The next lines start with the values.

Row | Ki [nM] | Compound
11 | ≤ 100 | Cc1ccc(C(=O)O)c(NC(=O)Cc2c[nH]c3ccc(Br)cc23)c1 [Example 6, 2-{[(5-bromo-1H-indol-3-yl)acetyl]amino}-4-methylbenzoic acid]
12 | ≤ 100 | Cc1ccc(C(=O)O)c(NC(=O)Cc2c[nH]c3ccc(F)cc23)c1 [Example 4, 2-{[(5-fluoro-1H-indol-3-yl)acetyl]amino}-4-methylbenzoic acid]
13 | ≤ 100 | COc1ccc2[nH]c(C)c(CC(=O)Nc3cc(C)ccc3C(=O)O)c2c1 [Example 1, 2-{[(5-methoxy-2-methyl-1H-indol-3-yl)acetyl]amino}-4-methylbenzoic acid]
14 | ≤ 100 | Cc1ccc(C(=O)O)c(NC(=O)Cc2c(-c3ccccc3)[nH]c3ccccc23)c1 [Example 9, 4-methyl-2-{[(2-phenyl-1H-indol-3-yl)acetyl]amino}benzoic acid]
15 | ≤ 100 | Cc1ccc(C(=O)O)c(NC(=O)Cc2c(C)[nH]c3ccc(Cl)cc23)c1 [Example 21, 2-{[(5-chloro-2-methyl-1H-indol-3-yl)acetyl]amino}-4-methylbenzoic acid]

Biological target: T1, human EP4 receptor
Experiment: [125I]cAMP Scintillation Proximity Assay (cAMP assay), EP4 antagonism
Format: cell-based
Set-up: host or cells: HEK-293 cells
Conditions: HEK-293 cells expressing recombinant human EP4; method of Arunlakshana and Schild; read-out: pKb at EP4 receptors (converted)
Procedure: The cAMP assay utilises HEK-293 cells expressing the recombinant human EP4 receptor, obtained from Receptor Biology, Inc. Beltsville, Md., USA. The cells were cultured in Dulbecco's Modified Eagle Medium—HAM F12 mix (DMEM-F12), containing 10% heat inactivated-foetal bovine serum (FBS) and 2 mM L-glutamine. The cells were either passaged into fresh medium or used in an assay once 90% confluency as determined visually had been achieved.
The cells were harvested by treatment with Versene, re-suspended in fresh culture medium and plated out to yield approximately 10,000 cells per well of a 96-well plate for overnight culture in culture medium additionally supplemented with 3 μM indomethacin. For assay, the culture medium was replaced with assay medium (DMEM-F12 containing 300 μM isobutylmethylxanthine (IBMX) and 3 μM indomethacin) and incubated for 30 minutes. Following this, antagonist was then added at various concentrations such that an entire agonist concentration-effect curve could be obtained in the presence of a single concentration of the antagonist. […] The amount of cAMP in each well was then determined by [^125I]cAMP scintillation proximity assay using a proprietary kit, obtained from Amersham, Buckinghamshire, UK, and according to the manufacturer's instructions.
Data from cAMP assays were expressed as pmol cAMP per well. […]

Row | Kb [nM] | Compound
16 | < 10 | COc1ccc2[nH]c(C)c(CC(=O)Nc3cc(C)ccc3C(=O)O)c2c1 [Example 1, 2-{[(5-methoxy-2-methyl-1H-indol-3-yl)acetyl]amino}-4-methylbenzoic acid]
